Data on 6 molecules can be found in patent US8076377B2, “N,N-dimethyl imidodicarbonimidic diamide dicarboxylate, method for producing the same and pharmaceutical compositions comprising the same” (Hanall Pharmaceutical Company, Ltd., priority 2007, dated 2011).

Structures can show the parent of a compound that is named as a salt.

The subject of one series is rabbit. The note with it: oral; cited from earlier work.
The conditions of series [1]: pH at saturation.
In series [2] the test system is hyperlipidemia-induced rats. Put plainly: Effect on blood lipid, oral administration for 1 week to hyperlipidemia-induced rats (blood biochemical tests). The following applies: 500 mg/kg oral for 1 week, average ± standard deviation.
Series [3] can be described thus: Water content with Karl-Fisher moisture meter after exposure to temperature/relative humidity (hygroscopicity, hydrate stability).
For another series, the system named is rat. The note with it: oral; cited from earlier work.

Take `Cl` [Hydrochloric acid]: the “LD50 (50% lethal dose)” value with rabbit was “LD50 900 mg/kg”.

In the case of `CN(C)C(=N)N=C(N)N.O=C(O)CCCC(=O)O` [Metformin glutarate, metformin (2:1) glutarate], in series [1], the “Saturation pH” value was determined as 10.200.

For the molecule `CN(C)C(=N)N=C(N)N` [Metformin hydrochloride, metformin hydrochloride, reference compound], in series [1], the “Saturation pH” value amounted to 2.892. For the same molecule, in series [2], the ALT amounted to 49.8 ± 4.8 IU/L, the AST is 126.9 ± 8.4 IU/L, the BUN was 13.6 ± 0.4 mg/dL and the “CHO (Cholesterol)” value is 277.1 ± 21.8 mg/dL. In series [2], the CRE turned out to be 0.5 ± 0.0 mg/dL, the HDL turned out to be 42.5 ± 1.0 mg/dL, the LDL amounted to 198.3 ± 18.5 mg/dL and the “TG (Triglyceride)” value was 37.3 ± 1.5 mg/dL. For the same molecule, the water content in series [3] (40° C., 75% R.H., day 0) is recorded as 0.080 wt %. In series [3] (40° C., 75% R.H., day 1), this molecule showed a water content of 0.069 wt %. The water content in series [3] (40° C., 75% R.H., day 2) was 0.053 wt %. The water content in series [3] (40° C., 75% R.H., day 5) stood at 0.054 wt %. In addition, in series [3] (60° C., 15% R.H., day 0), the water content was found to be 0.080 wt %. In series [3] (60° C., 15% R.H., day 1), this molecule showed a water content of 0.044 wt %. In addition, the water content in series [3] (60° C., 15% R.H., day 2) came out at 0.047 wt %. Also, the water content in series [3] (60° C., 15% R.H., day 5) worked out at 0.056 wt %.

As for `CN(C)C(=N)NC(=N)N` [Metformin malate, metformin (2:1) malate], the “Saturation pH” value in series [1] amounted to 3.950.

Turning to `O=C(O)CCCC(=O)O` [glutaric acid], in the series with rat, the “LD50 (50% lethal dose)” value is “LD50 6000 mg/kg”.

With “metformin (2:1) malonate [Metformin malonate]”, in series [2], the ALT came out at 49.0 ± 7.0 IU/L, the AST was 136.6 ± 11.6 IU/L, the BUN was 15.3 ± 0.9 mg/dL and the “CHO (Cholesterol)” value is 238.2 ± 16.4 mg/dL. Further, in series [2], the CRE turned out to be 0.5 ± 0.0 mg/dL, the HDL was 40.4 ± 1.4 mg/dL, the LDL is 168.3 ± 13.7 mg/dL and the “TG (Triglyceride)” value came out at 50.3 ± 7.9 mg/dL. For the same molecule, the water content in series [3] (40° C., 75% R.H., day 0) is recorded as 5.143 wt %. For the same molecule, the water content in series [3] (40° C., 75% R.H., day 1) stood at 5.403 wt %. The water content in series [3] (40° C., 75% R.H., day 2) turned out to be 5.288 wt %. The water content in series [3] (40° C., 75% R.H., day 5) was 5.376 wt %. This molecule registered a water content in series [3] (60° C., 15% R.H., day 0) of 5.143 wt %. In addition, the water content in series [3] (60° C., 15% R.H., day 1) amounted to 5.222 wt %. Besides, the water content in series [3] (60° C., 15% R.H., day 2) came to 5.219 wt %. Further, the water content in series [3] (60° C., 15% R.H., day 5) was 5.184 wt %.
